Assay [1] has as its target T1, ΔF508-CFTR (Homo sapiens, UniProt P13569, DEL508-508).
T1 construct: host or cells: CFBE41o-, doxycycline-inducible
The assay is described as follows: CFTR cell surface levels using HRP-tagged ΔF508-CFTR expressing CFBE cells, intrinsic corrector capacity. It counts as cell-based. Also noted: % Activation: concentration or dose not given beside the values. The settings on record: HRP-tagged ΔF508-CFTR expressing CFBE41o- cells, compound alone (intrinsic corrector capacity), 20 hours at 33° C.; for EC50: read-out: EC50. From the text:
Measuring CFTR Cell Surface Levels Using HRP-Tagged ΔF508-CFTR Expressing CFBE Cells
The HRP-tagged ΔF508-CFTR cell assay measures the expression of CFTR-ΔF508 at the plasma membrane. CFTR-ΔF508 has a folding defect leading to absence of protein at the plasma membrane. This assay is used to evaluate the capacity of compounds to increase the expression of CFTR-ΔF508 at the plasma membrane. The CFTR-ΔF508 is tagged with HRP (horse radish peroxidase enzyme) within the ECL4 (Extracellular loop 4) of CFTR (Phuan, P.-W. et al. Synergy-based small-molecule screen using a human lung epithelial cell line yields ΔF508-CFTR correctors that augment VX-809 maximal efficacy. Mol. Pharmacol. 86, 42-51 (2014)). When HRP-tagged ΔF508-CFTR is present at the plasma membrane, the HRP enzyme activity can be measured. The amount of CFTR-ΔF508 that can be rescued to the plasma membrane is correlated with the amount of functional enzyme that can be measured.
There are several ways to measure the capacity of compounds to rescue CFTR-ΔF508 to the plasma membrane; either compounds are evaluated on their own and the impact on plasma membrane levels is measured or compounds are evaluated in combination with a co-corrector, i.e. a compound that rescues CFTR-ΔF508 to the plasma membrane but rescue can be enhanced by addition of compounds due to a complementary mode of action.
Activity of Compounds for their Intrinsic Corrector Capacity:
For this purpose doxycycline-inducible ΔF508-CFTR-HRP expressing CFBE4lo− cells (obtained from Gergely Lukacs, McGill University) were maintained in MEM (Gibco; 31095) supplemented with 10% fetal bovine serum (Hyclone; SV30160.03) under puromycin (3 μg/mL) and G418 selection (0.2 mg/mL). For compound testing, cells were seeded at 4000 cells/well in white 384-well plates (Greiner; 781080) in 50 μL medium containing 0.5 μg/mL doxycycline and incubated for 68 hours at 37° C., 5% CO2. On day four, […] compounds diluted in PBS were added to the plates at a final DMSO concentration of 0.1%. All compound plates contained negative controls (DMSO) and positive controls ([…] corrector, 3-[(2R,4R)-4-({[1-(2,2-difluoro-1,3-benzodioxol-5-yl)cyclopropyl]carbonyl}amino)-7-methoxy-3,4-dihydro-2H-chromen-2-yl]benzoic acid). Cell plates were incubated at 33° C., 5% CO2 for 20 hours. On day five, the cells were washed five times with phosphate-buffered saline, and HRP activity was assayed by the addition of 50 μL/well of HRP substrate (SuperSignal™ West Pico Chemiluminescent Substrate, Thermo Scientific; 34080). After incubation for 15 minutes in the dark, chemiluminescence was measured using a plate reader (EnVision®, Perkin Elmer). Raw data were normalized to percentage activity values using the equation: 100×(Sample−Negative control)/(Positive control−Negative Control).

In assay [2] the target is T1, ΔF508-CFTR. Nature of the assay: CFTR cell surface levels using HRP-tagged ΔF508-CFTR expressing CFBE cells, in the presence of a co-corrector. It counts as cell-based. Particulars: HRP-tagged ΔF508-CFTR CFBE cells, in the presence of 3 μM co-corrector; for EC50: read-out: EC50. The procedure, abridged:
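Chemiluminescent read-out of surface HRP (15 min, dark) after PBS washes. Activity is normalized as 100×(sample−DMSO)/(3 μM co-corrector alone−DMSO).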

T1 sequence (P13569 with tags, fused parts or gaps DEL508-508): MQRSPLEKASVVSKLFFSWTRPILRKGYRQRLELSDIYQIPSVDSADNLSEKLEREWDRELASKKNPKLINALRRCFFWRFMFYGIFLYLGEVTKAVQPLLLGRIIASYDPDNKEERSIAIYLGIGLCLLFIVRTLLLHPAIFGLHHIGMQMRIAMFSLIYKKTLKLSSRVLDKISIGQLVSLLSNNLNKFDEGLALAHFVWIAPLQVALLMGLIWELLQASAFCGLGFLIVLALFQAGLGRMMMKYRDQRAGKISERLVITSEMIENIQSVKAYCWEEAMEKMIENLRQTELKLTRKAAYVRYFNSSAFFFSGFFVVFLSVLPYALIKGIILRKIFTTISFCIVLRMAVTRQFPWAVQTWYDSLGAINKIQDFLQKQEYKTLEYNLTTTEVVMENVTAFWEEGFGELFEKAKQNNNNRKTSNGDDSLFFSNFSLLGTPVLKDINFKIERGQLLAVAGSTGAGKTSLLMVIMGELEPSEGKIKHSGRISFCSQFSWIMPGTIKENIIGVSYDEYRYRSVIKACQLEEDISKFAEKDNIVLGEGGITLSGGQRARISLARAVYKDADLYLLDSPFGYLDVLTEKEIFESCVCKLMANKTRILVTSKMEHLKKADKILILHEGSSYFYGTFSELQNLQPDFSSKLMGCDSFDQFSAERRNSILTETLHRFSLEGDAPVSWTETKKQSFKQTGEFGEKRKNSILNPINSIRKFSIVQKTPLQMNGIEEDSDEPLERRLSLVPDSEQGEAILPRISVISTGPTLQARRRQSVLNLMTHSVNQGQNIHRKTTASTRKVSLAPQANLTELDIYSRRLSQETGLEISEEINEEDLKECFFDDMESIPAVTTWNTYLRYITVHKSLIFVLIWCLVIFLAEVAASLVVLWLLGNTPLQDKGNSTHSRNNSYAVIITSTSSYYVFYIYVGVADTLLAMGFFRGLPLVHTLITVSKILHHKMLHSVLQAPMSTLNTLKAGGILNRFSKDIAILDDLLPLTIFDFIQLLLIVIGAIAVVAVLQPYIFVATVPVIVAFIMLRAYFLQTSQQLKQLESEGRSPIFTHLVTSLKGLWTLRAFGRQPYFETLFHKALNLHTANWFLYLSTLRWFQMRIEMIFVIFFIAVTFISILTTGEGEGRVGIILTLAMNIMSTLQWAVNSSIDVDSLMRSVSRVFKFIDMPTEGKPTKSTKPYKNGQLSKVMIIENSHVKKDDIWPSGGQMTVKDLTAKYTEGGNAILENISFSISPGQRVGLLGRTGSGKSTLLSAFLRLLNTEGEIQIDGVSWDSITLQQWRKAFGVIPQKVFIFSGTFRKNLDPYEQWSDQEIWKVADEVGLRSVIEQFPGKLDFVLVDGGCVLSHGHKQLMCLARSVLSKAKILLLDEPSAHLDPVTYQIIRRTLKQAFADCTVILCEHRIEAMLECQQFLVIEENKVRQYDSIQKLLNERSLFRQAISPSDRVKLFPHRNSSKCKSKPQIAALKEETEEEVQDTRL

Turning to `C[C@H](C1CCN(c2cc(C(=O)NS(=O)(=O)N(C)C)nc3c2c(C2CCC2)nn3-c2ccc(F)cc2)CC1)N1CCOCC1` (single isomer, unassigned) [Compound 479], at ΔF508-CFTR [1], the “% Activation” value was 305.7% and the 50% effective concentration (EC50) (usually the midpoint of the concentration-response curve) turned out to be 0.197 µM. In addition, at ΔF508-CFTR [2], the “% Activation” value turned out to be 524.1% and the concentration giving a half-maximal response (EC50) came to 0.109 µM.
In the case of `COCC1CCN(c2cc(C(=O)NS(=O)(=O)CCl)nc3c2c(C2CCC2)nn3-c2ccccc2)CC1` [AC07], the “% Activation” value stood at 268.5% at ΔF508-CFTR [1] and 466.9% on ΔF508-CFTR [2]. Also, the EC50 at ΔF508-CFTR [1] was found to be 0.139 µM; on ΔF508-CFTR [2] it was 0.0766 µM.
Taken in the same sequence, the figures for `Cc1nn(-c2ccccc2)c2nc(C(=O)NS(=O)(=O)c3ccccc3)cc(-c3ccc(N4CCOCC4)cc3)c12` [Compound 2, N-(benzenesulfonyl)-3-methyl-4-[4-(morpholin-4-yl)phenyl]-1-phenyl-1H-pyrazolo[3,4-b]pyridine-6-carboxamide] were 226.75%, 431.5%, 1.87 µM and 1.12 µM.
Consider `Cc1nn(-c2ccccc2)c2nc(C(=O)NS(=O)(=O)C3CC3)cc(-c3ccc(N4CCOCC4)cc3)c12` [Compound 4, N-(cyclopropanesulfonyl)-3-methyl-4-[4-(morpholin-4-yl)phenyl]-1-phenyl-1H-pyrazolo[3,4-b]pyridine-6-carboxamide], for which, at ΔF508-CFTR [1], the “% Activation” value is 246.7% and the EC50 was determined as 0.838 µM. On ΔF508-CFTR [2], the “% Activation” value is reported as 405.8% and the concentration for a half-maximal effect (EC50) was 0.298 µM.
As for `Cc1nn(-c2cccc(OC(F)(F)F)c2)c2nc(C(=O)NS(C)(=O)=O)cc(-c3ccc(N4CCOCC4)cc3)c12` [Compound 6, N-(methanesulfonyl)-3-methyl-4-[4-(morpholin-4-yl)phenyl]-1-[3-(trifluoromethoxy)phenyl]-1H-pyrazolo[3,4-b]pyridine-6-carboxamide], on ΔF508-CFTR [1], the “% Activation” value is reported as 232.1% and the EC50 was found to be 0.808 µM. Further, on ΔF508-CFTR [2], the “% Activation” value turned out to be 387.1% and the EC50 worked out at 0.511 µM.
For `CC(C)c1nn(-c2ccccc2)c2nc(C(=O)NS(C)(=O)=O)cc(-c3ccc(N(C)C)cc3)c12` [Compound 7, 4-[4-(dimethylamino)phenyl]-N-(methanesulfonyl)-1-phenyl-3-(propan-2-yl)-1H-pyrazolo[3,4-b]pyridine-6-carboxamide], the “% Activation” value came to 245% on ΔF508-CFTR [1] and 420.63% on ΔF508-CFTR [2]. In addition, the EC50 was 0.636 µM on ΔF508-CFTR [1] and 0.554 µM at ΔF508-CFTR [2].
Regarding `Cc1nn(-c2cccc(C(F)(F)F)c2)c2nc(C(=O)NS(C)(=O)=O)cc(-c3ccc(N4CCOCC4)cc3)c12` [Compound 8, N-(methanesulfonyl)-3-methyl-4-[4-(morpholin-4-yl)phenyl]-1-[3-(trifluoromethyl)phenyl]-1H-pyrazolo[3,4-b]pyridine-6-carboxamide], at ΔF508-CFTR [1], the “% Activation” value came to 270.6% and the half-maximal effective concentration (EC50) came out at 0.9 µM. Moreover, at ΔF508-CFTR [2], the “% Activation” value amounted to 441.85% and the EC50 amounted to 0.854 µM.
The corresponding values for `CC(C)c1nn(C2CCCCC2)c2nc(C(=O)NS(C)(=O)=O)cc(-c3cnc(N(C)C)nc3)c12` [Compound 9, 1-cyclohexyl-4-[2-(dimethylamino)pyrimidin-5-yl]-N-(methanesulfonyl)-3-(propan-2-yl)-1H-pyrazolo[3,4-b]pyridine-6-carboxamide] are 143.05%, 0.786 µM, 335% and 0.505 µM.
As for `CC(C)(C)c1nn(C2CCCC2)c2nc(C(=O)NS(C)(=O)=O)cc(-c3ccc(N4CCOCC4)nc3)c12` [Compound 12, 3-tert-butyl-1-cyclopentyl-N-(methanesulfonyl)-4-[6-(morpholin-4-yl)pyridin-3-yl]-1H-pyrazolo[3,4-b]pyridine-6-carboxamide], at ΔF508-CFTR [1], the “% Activation” value came out at 161.15% and the EC50 is 1.07 µM. For the same molecule, on ΔF508-CFTR [2], the “% Activation” value is listed as 364.15% and the EC50 came out at 0.714 µM.
The corresponding values for `COc1ccc(-c2cc(C(=O)NS(C)(=O)=O)nc3c2c(C)nn3-c2ccccc2)cc1` [Compound 14, N-(methanesulfonyl)-4-(4-methoxyphenyl)-3-methyl-1-phenyl-1H-pyrazolo[3,4-b]pyridine-6-carboxamide] are 148.9%, 1.43 µM, 335.6% and 1.37 µM.
The corresponding values for `CCS(=O)(=O)NC(=O)c1cc(-c2ccc(OC)cc2)c2c(C)nn(-c3ccccc3)c2n1` [Compound 15, N-(ethanesulfonyl)-4-(4-methoxyphenyl)-3-methyl-1-phenyl-1H-pyrazolo[3,4-b]pyridine-6-carboxamide] are 151.65%, 1.19 µM, 346.15% and 0.852 µM.
For the molecule `CC(C)c1nn(-c2cccc(N3CCCC3)c2)c2nc(C(=O)NS(C)(=O)=O)cc(-c3ccc(N4CCOCC4)cc3)c12` [Compound 16, N-(methanesulfonyl)-4-[4-(morpholin-4-yl)phenyl]-3-(propan-2-yl)-1-[3-(pyrrolidin-1-yl)phenyl]-1H-pyrazolo[3,4-b]pyridine-6-carboxamide], on ΔF508-CFTR [1], the “% Activation” value came out at 469.75% and the EC50 was 0.543 µM. Further, at ΔF508-CFTR [2], the “% Activation” value is recorded as 649.9% and the EC50 came out at 0.459 µM.
Turning to `COc1ccc(-n2nc(C(C)C)c3c(-c4ccc(N(C)C)cc4)cc(C(=O)NS(C)(=O)=O)nc32)cn1` [Compound 17, 4-[4-(dimethylamino)phenyl]-N-(methanesulfonyl)-1-(6-methoxypyridin-3-yl)-3-(propan-2-yl)-1H-pyrazolo[3,4-b]pyridine-6-carboxamide], the “% Activation” value was found to be 140.75% on ΔF508-CFTR [1] and 320% on ΔF508-CFTR [2]. Further, the EC50 turned out to be 1.23 µM on ΔF508-CFTR [1] and 1.12 µM at ΔF508-CFTR [2].
`COc1ccc(-c2cc(C(=O)NS(C)(=O)=O)nc3c2c(C)nn3-c2ccc(C)c(Cl)c2)cc1` [Compound 18, 1-(3-chloro-4-methylphenyl)-N-(methanesulfonyl)-4-(4-methoxyphenyl)-3-methyl-1H-pyrazolo[3,4-b]pyridine-6-carboxamide]: on ΔF508-CFTR [1], the “% Activation” value turned out to be 64.675% and the EC50 stood at 2.27 µM. Besides, on ΔF508-CFTR [2], the “% Activation” value is recorded as 217.8% and the half-maximal effective concentration (EC50) was determined as 1.11 µM.
The corresponding values for `CCS(=O)(=O)NC(=O)c1cc(N2CCCCC2)c2c(C)nn(-c3ccccc3)c2n1` [Compound 19, N-(ethanesulfonyl)-3-methyl-1-phenyl-4-(piperidin-1-yl)-1H-pyrazolo[3,4-b]pyridine-6-carboxamide] are 140.85%, 2.65 µM, 304.05% and 1.63 µM.
Take `CNS(=O)(=O)NC(=O)c1cc(N2CCN(C(=O)OCC(C)C)CC2)c2c(C3CCC3)nn(-c3ccc(F)cc3)c2n1` [Compound 684, 2-methylpropyl 4-{3-cyclobutyl-1-(4-fluorophenyl)-6-[(methylsulfamoyl)carbamoyl]-1H-pyrazolo[3,4-b]pyridin-4-yl}piperazine-1-carboxylate]: at ΔF508-CFTR [1], the “% Activation” value came to 356.9% and the EC50 was found to be 0.115 µM.
The corresponding values for `CN1CCC2(CC1)CCN(c1cc(C(=O)NS(=O)(=O)N3CCOCC3)nc3c1c(C1CCC1)nn3-c1ccc(F)cc1)CC2` [Compound 685, 3-cyclobutyl-1-(4-fluorophenyl)-4-(9-methyl-3,9-diazaspiro[5.5]undecan-3-yl)-N-(morpholine-4-sulfonyl)-1H-pyrazolo[3,4-b]pyridine-6-carboxamide] are 144.3% and 0.77 µM.
